# Source: PubChem BioAssay AID652267 (Sanford-Burnham Center for Chemical Genomics, 2013)
# Calls of active or inactive are those of the source.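 How the source made its calls: active means compound that lowers ATP signal in parent HT1080 cells at potency within fivefold of its primary screen potency; inactive means the rest.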
# Test system: HT1080 viability, ATPLite luminescence, overnight
# Experiment: HT1080 parental cell cytotoxicity, SAR follow-up, cytotoxicity control for MT1-MMP activation inhibitor project, ATPLite luminescence (AID 652267)
row,Structure (SMILES),IC50
1,CCn1c(=O)c(=O)[nH]c2cc(C(=O)NC3CCCc4ccccc43)ccc21 (stereo unspecified),15.5 µM
2,COc1ccc(C)cc1Nc1nc(-c2c(C)[nH]c3ccccc23)cs1,> 80 µM (inactive)
3,CN1/C(=C/C=C/c2n(C)c3cc([N+](=O)[O-])c([N+](=O)[O-])cc3[n+]2C)C(C)(C)c2ccccc21,40.2 µM (inactive)
4,CN1/C(=C\C(=O)c2cncc(Br)c2)C(C)(C)c2ccccc21,> 80 µM (inactive)
5,O=Nc1c(-c2c(O)[nH]c3cc(Br)ccc23)[nH]c2ccccc12,36.9 µM (inactive)
6,Cc1c(C(=O)OCC(=O)NCC2CCCO2)oc2ccccc12 (stereo unspecified),30.3 µM (inactive)
